Data as given in patent publication US11396497B2, “Proteasome inhibitors” (New Mexico Tech University Research Park Corporation, priority 2018, dated 2022).
Like-named read-outs stand apart in the source and are kept apart here.

Legend:
[1] = target: T1, trypsin-like activity of the 26S proteasome (Homo sapiens, UniProt Q99436); assay: Proteasome assay, trypsin-like (T-L) activity, SUC-RLR-AMC, Jurkat cell lysate; assay type: biochemical; conditions: Table 2, P1 analogues; ± S.D.; read-out: Proteasome Inhibition T-L-like IC50
T1 construct: endogenous in cells; host or cells: Jurkat (ATCC TIB-152, E6-1 clone) cell lysate
T1 sequence (Q99436 44-277): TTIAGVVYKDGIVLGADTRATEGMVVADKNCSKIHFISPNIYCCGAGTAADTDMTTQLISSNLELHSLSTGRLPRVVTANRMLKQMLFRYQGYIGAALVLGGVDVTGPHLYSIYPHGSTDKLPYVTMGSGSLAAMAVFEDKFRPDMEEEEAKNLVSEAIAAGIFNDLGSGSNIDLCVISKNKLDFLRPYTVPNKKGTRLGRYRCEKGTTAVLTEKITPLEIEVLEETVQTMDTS
Procedure: (§1) The lysate was stored at −80° C. until the sample was used for the proteasome assay.
(§2) The compounds were diluted with lysis buffer; 10 μL of the compound-containing solution was added to the test wells at ten times the final concentration. […] The results are reported as the average of at least 3 technical replicates of IC50 values for proteasome inhibition.

[2] = target: T2, chymotrypsin-like activity of the 26S proteasome (Homo sapiens, UniProt P28074); assay: Proteasome assay, chymotrypsin-like (ChT-L) activity, Suc-LLVY-AMC, Jurkat cell lysate; assay type: biochemical
T2 construct: endogenous in cells; host or cells: Jurkat (ATCC TIB-152, E6-1 clone) cell lysate
T2 sequence (P28074 60-263): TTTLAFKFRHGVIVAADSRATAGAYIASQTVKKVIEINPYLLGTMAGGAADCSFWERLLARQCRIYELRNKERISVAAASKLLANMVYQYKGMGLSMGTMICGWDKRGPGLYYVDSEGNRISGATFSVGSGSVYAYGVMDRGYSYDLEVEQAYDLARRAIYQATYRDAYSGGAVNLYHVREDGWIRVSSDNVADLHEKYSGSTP
Procedure: as §1, §2

MCF7 cells = assay: MTT assay cytotoxicity MCF7; conditions: Homo sapiens
[3] = target: T3, ChT-L activity of the 26S proteasome (Homo sapiens, UniProt P28074); assay: Proteasome inhibition after pre-incubation with newborn bovine serum; assay type: in vitro ADME; conditions: pre-incubation 1 hour at 37° C. with NBS
T3 sequence (P28074 60-263): T2 sequence (P28074 60-263)
Procedure: EDTA chelates divalent metal ions. By including EDTA during the pre-incubation step, EDTA protected compound 8 from being deactivated by NBS, shown by low proteasome activity below 5 nM of compound 8.
The assays were performed in biological triplicate, and the data points are reported with the corresponding standard deviations.

In the case of `CC[C@H](C)[C@@H]1C(=O)O[C@H]1C(=O)N[C@H](C(=O)N[C@H](C(=O)OCc1ccccc1)C(C)C)C(C)C` [Compound 8, Benzyl ((2R,3S)-3-((S)-sec-butyl)-4-oxooxetane-2-carbonyl)-L-valyl-L-valinate], the IC50 [1] is reported as 1.52 ± 0.788 µM, the IC50 [2] is reported as 0.0071 ± 0.0028 µM and the IC50 ([2]; Table 5, ± S.D., read-out: Proteasome Inhib. ChT-L IC50) is reported as 0.007 ± 0.000311 µM. The IC50 (MCF7 cells; MCF7, 48 h, read-out: Cytotoxicity MCF7 IC50) was 1.41 ± 0.687 µM, the IC50 (MCF7 cells; MCF7, read-out: Cytotoxicity MCF7 IC50) was 1.85 ± 0.261 µM and the “deactivation by newborn bovine serum” value [3] was “deactivates compound 8”.
